# Assay results reported in patent US9271993B2, “Treatment of bacterial infectious diseases” (priority 2010, dated 2016).
# What was measured:
# Assay in all cases: Ribosomal drug susceptibility (MIC) of recombinant bacteria
# Conditions in all cases: Table 10
# bacterial ribosomes = test system: bacterial ribosomes
# Experimental: (§1) The recombinants carrying the respective mutational alterations were subjected to determinations of minimal inhibitory concentrations (MIC) to assess ribosomal drug susceptibility. Cultures from single colonies were grown in LB medium supplemented with 0.05% Tween 80 and used for MIC tests in a microtiter plate format. Starting cultures contained 200 μl of bacterial cells at an optical density of 0.025 at 600 nm, and the respective drug was added in twofold series of dilution.
# mitohybrid ribosomes = test system: mitohybrid ribosomes
# cytohybrid ribosomes = test system: cytohybrid ribosomes
# Experimental: as §1
SMILES,"MIC, wild type bacteria (bacterial ribosomes)","MIC, bacteria with mitohybrid ribosome (mitohybrid ribosomes)","MIC, bacteria with cytohybrid ribosome (cytohybrid ribosomes)"
"CC(=O)O.CC(=O)O.CC(=O)O.CC(=O)O.CN1C(=O)OC2C3OC(OC4C(N)CC(N)C(O)C4O)C(N)CC3OC(OC3OC(CO)C(NC(=O)C(O)CCN)C(O)C3O)C21 [ETH 99, 7′-N,6′-O-Carbonyl-4″-N-[(2S)-4-amino-2-hydroxybutyryl]apramycin tetraacetate]",2.0 to 4.0 µg/mL,>256.0 µg/mL,>256.0 µg/mL
"CC(=O)O.CC(=O)O.CC(=O)O.CC(=O)O.CN[C@@H]1[C@@H](O[C@H]2O[C@H](CO)[C@@H](N)[C@H](O)[C@H]2O)O[C@H]2C[C@@H](NC(=O)[C@@H](O)CCN)[C@@H](O[C@H]3[C@H](O)[C@@H](O)[C@H](N)C[C@@H]3N)O[C@@H]2[C@@H]1O [ETH 100, 2′-N-[(2S)-4-Amino-2-hydroxybutyryl]apramycin tetraacetate]",2.0 to 4.0 µg/mL,>256.0 µg/mL,>256.0 µg/mL
"CC(=O)O.CC(=O)O.CC(=O)O.CC(=O)O.CNC1C(OC2OC(CO)C(N)C(O)C2O)OC2CC(N)C(OC3C(N)CC(NC(=O)C(O)CCN)C(O)C3O)OC2C1O [ETH 102, 1-N-[(2S)-4-Amino-2-hydroxybutyryl]apramycin tetraacetate]",4.0 µg/mL,>256.0 µg/mL,>256.0 µg/mL
CC(=O)O.CC(=O)O.CC(=O)O.CC(=O)O.CNC1C(OC2OC(CO)C(N)C(O)C2O)OC2CC(NC(=O)C(O)CCN3C(=O)c4ccccc4C3=O)C(OC3C(N)CC(N)C(O)C3O)OC2C1O (stereo not drawn) [ETH 103],8.0 µg/mL,>256.0 µg/mL,>256.0 µg/mL
